According to patent publication US20230322789A1, “PYRAZOLOPYRIDAZINONE COMPOUND, AND PHARMACEUTICAL COMPOSITION AND USE THEREOF” (BroadenBio Co., Ltd., priority 2020, published 2023):
Counter-ions that a name gives are not always drawn.

Tests used:
[1] = biological target: HPK1 (Homo sapiens (Human), UniProt Q92918); test: HPK1 kinase activity inhibition test (ADP-Glo, luminescence); type: biochemical; conditions: HPK1 5 nM, ATP 2 μM, read-out: IC50, inhibitory effects of compounds on HPK1 kinase activity
Protocol: 1. HPK1 Kinase Activity Inhibition Test
The kinase activity of HPK1 is manifested as activity of autophosphorylation and phosphorylation of downstream substrates. In the process of autophosphorylation, additional substrates are not required, and ATP is consumed to generate ADP. The amount of the product was measured by ADP-Glo reagent and luminescence method to reflect kinase activity.
Test compounds: compounds prepared in the examples of this application.
Prepare compound stock solution: dissolve the compound to be tested in 100% DMSO to make a 10 mM stock solution;
Prepare 4× Kinase Reaction Buffer:
Prepare 2×HPK1 Kinase Solution:
Dilute the stock solution of the compound to be tested by 5 times with […], make a 4-fold equal dilution in a 96-well dilution plate, add 1 μL of the compound to 49 µL of kinase reaction buffer, and shake on a microplate shaker for 20 minutes. Transfer 2 μL of […] kinase solution to 384 reaction plate, add 1 μL of the test compound to the 384 reaction plate (Greiner, 784075), centrifuge for 1 minute (1000 rpm/min), incubate at 25° C. for 10 minutes. Transfer […] of the 4×ATP mixture to a 384 reaction plate, centrifuge for 1 minute (1000 rpm/mm), and incubate at 25° C. for 60 minutes. In the reaction system, the final concentration of DMSO was […]. Transfer 4 μL of ADP-Glo to a 384 reaction plate, centrifuge for 1 minute (1000 rpm/min), and incubate at 25° C. for 40 minutes. Transfer 8 μL detection solution to a 384 reaction plate, centrifuge for 1 minute (1000 rpm/min), and incubate at 25° C. for 40 minutes. The […] signal was read using a Biotek multi-function plate reader, and the […] (half inhibitory concentration) of the compound was obtained using a four-coefficient nonlinear fitting formula.

[2] = test system: Human Jurkat-E6-1 cells; test: Measurement of IL-2 secretion of Jurkat cells by ELISA; type: cell-based; conditions: Homo sapiens, Jurkat E6.1, anti-CD3/anti-CD28 stimulation 24 hours, read-out: Percentage of the amount of IL-2 secreted from compound treated/DMSO-treated cells; for activity at 3 µM: test compound 3.0 μM; for activity at 1 µM: test compound 1.0 μM
Protocol: 2. Measurement of IL-2 Secretion of Jurkat Cells by ELISA
Human Jurkat-E6-1 cells were incubated with various concentrations of test compounds for 30 minutes in a humidified incubator at 37° C. and […]. Cells were transferred to cell culture plates pre-coated with anti-human CD3 antibody, then soluble anti-human CD28 antibody was added, and cells were stimulated for 24 hours at 37° C. and 5% CO2 in a humidified incubator. The cell culture medium was collected by centrifugation, and was then transferred to a 96-well transparent microtiter plate (Thermo) pre-coated with anti-human IL-2 antibody, incubated at room temperature for 2 hours, and gently shaken, washed with washing buffer for 4 times, and then followed the ELISA MAX Deluxe Set Human IL-2 (BioLegend) kit procedure, used a microplate reader (Molecular Device, i3X) to read the GD value. The best standard curve was selected by the microplate reader application software, and the corresponding concentration was calculated according to the GD value of the standard. Results are expressed as a percentage of the amount of IL-2 secreted from compound-treated/DMSO-treated cells.

Chain of HPK1 (Q92918 whole entry): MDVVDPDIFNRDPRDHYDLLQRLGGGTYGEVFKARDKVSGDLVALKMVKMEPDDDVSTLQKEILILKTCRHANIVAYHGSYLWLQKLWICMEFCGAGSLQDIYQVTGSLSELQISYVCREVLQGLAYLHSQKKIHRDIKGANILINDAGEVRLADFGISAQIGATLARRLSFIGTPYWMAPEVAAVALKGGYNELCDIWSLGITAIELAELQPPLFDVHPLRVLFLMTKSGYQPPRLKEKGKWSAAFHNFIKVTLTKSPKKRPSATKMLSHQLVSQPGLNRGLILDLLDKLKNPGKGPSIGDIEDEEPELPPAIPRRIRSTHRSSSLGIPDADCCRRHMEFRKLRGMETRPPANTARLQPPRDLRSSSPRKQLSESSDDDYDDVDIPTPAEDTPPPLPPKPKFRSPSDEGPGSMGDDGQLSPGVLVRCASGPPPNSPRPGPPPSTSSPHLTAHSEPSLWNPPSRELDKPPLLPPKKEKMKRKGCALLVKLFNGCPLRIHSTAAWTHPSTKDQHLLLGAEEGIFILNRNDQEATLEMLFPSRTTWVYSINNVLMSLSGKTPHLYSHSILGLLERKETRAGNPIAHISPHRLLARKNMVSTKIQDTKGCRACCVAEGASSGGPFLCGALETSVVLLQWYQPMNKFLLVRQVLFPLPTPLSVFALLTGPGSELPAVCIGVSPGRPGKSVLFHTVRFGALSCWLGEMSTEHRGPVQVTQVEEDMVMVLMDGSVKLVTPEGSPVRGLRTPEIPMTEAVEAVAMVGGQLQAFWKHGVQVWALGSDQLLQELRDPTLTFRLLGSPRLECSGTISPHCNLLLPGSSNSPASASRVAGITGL

Row | IC50 [1] [nM] | Structure (SMILES) | activity at 3 µM [2] [%] | activity at 1 µM [2] [%] | activity at 0.33 µM ([2]; test compound 0.33 μM) [%]
1 | ≤ 50 | COc1cccc(F)c1-n1nc2c(-c3ccc(N4CCC(N5CCN(C)CC5)CC4)cc3)n[nH]c2cc1=O [Compound 145, 5-(2-fluoro-6-methoxyphenyl)-3-(4-(4-(4-methylpiperazin-1-yl)piperidin-1-yl)phenyl)-1H-pyrazolo[4,3-c]pyridazin-6(5H)-one] | 776 | – | –
2 | ≤ 50 | COc1cccc(F)c1-n1nc2c(-c3ccc(N4CCC(C)(O)CC4)cc3)n[nH]c2cc1=O [Compound 140, 5-(2-fluoro-6-methoxyphenyl)-3-(4-(4-hydroxyl-4-methylpiperidin-1-yl)phenyl)-1H-pyrazolo[4,3-c]pyridazin-6(5H)-one] | 436 | – | –
3 | ≤ 50 | Cc1cccc(F)c1-n1nc2c(-c3ccc(N4CCN5CCOC[C@@H]5C4)cc3)n[nH]c2cc1=O [Compound 133, (S)-5-(2-fluoro-6-methylphenyl)-3-(4-(hexahydropyrazino[2,1-c][1,4]oxazin-8(1H)-yl)phenyl)-1H-pyrazolo[4,3-c]pyridazin-6(5H)-one] | 800 | – | –
4 | ≤ 50 | COc1cccc(F)c1-n1nc2c(-c3ccc(N4CCN5CCOC[C@H]5C4)cc3)n[nH]c2cc1=O [Compound 136, (R)-5-(2-fluoro-6-methoxyphenyl)-3-(4-(hexahydropyrazino[2,1-c][1,4]oxazin-8(1H)-yl)phenyl)-1H-pyrazolo[4,3-c]pyridazin-6(5H)-one] | 702 | – | –
5 | ≤ 50 | Cc1cccc(F)c1-n1nc2c(-c3ccc4c(c3)CNCC4)n[nH]c2cc1=O [Compound 161, 5-(2-fluoro-6-methylphenyl)-3-(1,2,3,4-tetrahydroisoquinolin-7-yl)-1H-pyrazolo[4,3-c]pyridazin-6(5H)-one hydrochloride] | 393 | – | –
6 | ≤ 50 | Cc1cccc(F)c1-n1nc2c(-c3cccc(N4CCN(C)CC4)c3)n[nH]c2cc1=O [Compound 198, 5-(2-fluoro-6-methylphenyl)-3-(3-(4-methylpiperazin-1-yl)phenyl)-1H-pyrazolo[4,3-c]pyridazin-6(5H)-one] | 280 | – | –
7 | ≤ 50 | Cc1cccc(F)c1-n1nc2c(-c3ccc4c(c3)CN(C)CC4)n[nH]c2cc1=O [Compound 156, 5-(2-fluoro-6-methylphenyl)-3-(2-methyl-1,2,3,4-tetrahydroisoquinolin-7-yl)-1H-pyrazolo[4,3-c]pyridazin-6(5H)-one] | 849 | – | –
8 | 50 to 500 | COc1cccc(F)c1-n1nc2c(-c3cccc(N4CCC(O)CC4)c3)n[nH]c2cc1=O [Compound 206, 3-(3-(4-hydroxylpiperidin-1-yl)phenyl)-5-(2-fluoro-6-methoxyphenyl)-1H-pyrazolo[4,3-c]pyridazin-6(5H)-one] | – | – | –
9 | 50 to 500 | Cc1cccc(F)c1-n1nc2c(-c3ccc4c(c3)CN(C3CCOCC3)CC4)n[nH]c2cc1=O [Compound 167, 5-(2-fluoro-6-methylphenyl)-3-(2-(tetrahydro-2H-pyran-4-yl)-1,2,3,4-tetrahydroisoquinolin-7-yl)-1H-pyrazolo[4,3-c]pyridazin-6(5H)-one] | – | – | –
10 | ≤ 50 | Cc1cccc(F)c1-n1nc2c(-c3ccc4c(c3)CN(C)C4)n[nH]c2cc1=O [Compound 197, 5-(2-fluoro-6-methylphenyl)-3-(2-methylisoindolin-5-yl)-1H-pyrazolo[4,3-c]pyridazin-6(5H)-one] | – | – | –
11 | 50 to 500 | Cc1cccc(F)c1-n1nc2c(-c3ccc4c(c3F)CN(C)CC4)n[nH]c2cc1=O [Compound 188, 3-(8-fluoro-2-methyl-1,2,3,4-tetrahydroisoquinolin-7-yl)-5-(2-fluoro-6-methylphenyl)-1H-pyrazolo[4,3-c]pyridazin-6(5H)-one] | – | – | –
12 | 50 to 500 | COc1cccc(F)c1-n1nc2c(-c3cccc(N4CCN(C)CC4)c3F)n[nH]c2cc1=O [Compound 209, 3-(2-fluoro-3-(4-methylpiperazin-1-yl)phenyl)-5-(2-fluoro-6-methoxyphenyl)-1H-pyrazolo[4,3-c]pyridazin-6(5H)-one] | – | – | –
13 | 500 to 2000 | COc1cc(C)c(-n2nc3c(-c4ccc(N5CCN(C)CC5)cc4)n[nH]c3cc2=O)cn1 [Compound 149] | – | – | –

Second part, the compound before the results:

Row | Structure (SMILES) | IC50 [1] [nM] | activity at 3 µM [2] [%] | activity at 1 µM [2] [%] | activity at 0.33 µM ([2]; test compound 0.33 μM) [%]
14 | COc1cccc(F)c1-n1nc2c(-c3cnc(N4CCOCC4)nc3)n[nH]c2cc1=O [Compound 111, 5-(2-fluoro-6-methoxyphenyl)-3-(2-morpholinyl-pyrimidin-5-yl)-1H-pyrazolo[4,3-c]pyridazin-6(5H)-one] | ≤ 50 | 522 | – | –
15 | Cc1cccc(F)c1-n1nc2c(-c3ccc(N4C[C@@H]5C[C@H]4CN5C)cc3)n[nH]c2cc1=O [Compound 87] | ≤ 50 | 584 | – | –
16 | Cc1cccc(F)c1-n1nc2c(-c3ccc(N4CCN5C(=O)OCC5C4)nc3)n[nH]c2cc1=O (stereo not shown) [Compound 129, 7-(5-(5-(2-fluoro-6-methylphenyl)-6-oxo-5,6-dihydro-1H-pyrazolo[4,3-c]pyridazin-3-yl)pyridin-2-yl)tetrahydro-1H-oxazolo[3,4-a]pyrazin-3(5H)-one] | – | 807 | – | –
17 | COc1cccc(F)c1-n1nc2c(-c3ccc4c(c3)CN(C)CC4)n[nH]c2cc1=O [Compound 73, 5-(2-fluoro-6-methoxyphenyl)-3-(2-methyl-1,2,3,4-tetrahydroisoquinolin-7-yl)-1H-pyrazolo[4,3-c]pyridazin-6(5H)-one] | ≤ 50 | 926 | – | –
18 | CC(C)c1cccc(F)c1-n1nc2c(-c3ccc(N4CCN(C)CC4)cc3)n[nH]c2cc1=O [Compound 29, 5-(2-fluoro-6-isopropylphenyl)-3-(4-(4-methylpiperazin-1-yl)phenyl)-1H-pyrazolo[4,3-c]pyridazin-6(5H)-one] | ≤ 50 | – | 291 | –
19 | Cc1cccc(F)c1-n1nc2c(-c3ccc(N4CCN(C)CC4CO)cc3)n[nH]c2cc1=O (stereo not shown) [Compound 130, 5-(2-fluoro-6-methylphenyl)-3-(4-(2-(hydroxymethyl)-4-methylpiperazin-1-yl)phenyl)-1H-pyrazolo[4,3-c]pyridazin-6(5H)-one] | ≤ 50 | 454 | – | –
20 | CCc1cccc(F)c1-n1nc2c(-c3ccc(N4CCN(C)CC4)cc3)n[nH]c2cc1=O [Compound 8, 5-(2-ethyl-6-fluorophenyl)-3-(4-(4-methylpiperazin-1-yl)phenyl)-1H-pyrazolo[4,3-c]pyridazin-6(5H)-one] | ≤ 50 | – | – | 306
21 | Cc1cccc(F)c1-n1nc2c(-c3ccc(OCC4CNCCN4)cc3)n[nH]c2cc1=O (stereo not shown) [Compound 93, 5-(2-fluoro-6-methylphenyl)-3-(4-(piperazin-2-ylmethoxy)phenyl)-1H-pyrazolo[4,3-c]pyridazin-6(5H)-one] | ≤ 50 | 210 | – | –
22 | COc1cccc(F)c1-n1nc2c(-c3ccc(N4CCN(C)C(C(C)(C)O)C4)cc3)n[nH]c2cc1=O (stereo not shown) [Compound 126] | ≤ 50 | 428 | – | –
23 | CCc1cccc(F)c1-n1nc2c(-c3ccc(N4CCN(CC(C)(C)O)CC4)cc3)n[nH]c2cc1=O [Compound 116, 5-(2-ethyl-6-fluorophenyl)-3-(4-(4-(2-hydroxyl-2-methylpropyl)piperazin-1-yl)phenyl)-1H-pyrazolo[4,3-c]pyridazin-6(5H)-one] | – | – | 193 | –
24 | COc1cccc(F)c1-n1nc2c(-c3ccc(N4CCN5C(=O)CN(C)CC5C4)cc3)n[nH]c2cc1=O (stereo not shown) [Compound 132, 8-(4-(5-(2-fluoro-6-methoxyphenyl)-6-oxo-5,6-dihydro-1H-pyrazolo[4,3-c]pyridazin-3-yl)phenyl)-2-methylhexahydro-1H-pyrazino[1,2-a]pyrazin-4(6H)-one] | ≤ 50 | – | – | –
25 | COc1cccc(F)c1-n1nc2c(-c3ccc4c(c3)CCN(C)C4)n[nH]c2cc1=O [Compound 72, 5-(2-fluoro-6-methoxyphenyl)-3-(2-methyl-1,2,3,4-tetrahydroisoquinolin-6-yl)-1H-pyrazolo[4,3-c]pyridazin-6(5H)-one] | 50 to 500 | – | – | –
